Take `CC(C)c1sc2ncnc(N)c2c1-c1ccc(NC(=O)c2ccccc2)cc1` [Example 8, N-[4-(4-amino-6-isopropylthieno[2,3-d]pyrimidin-5-yl)phenyl]benzamide]: the melting point was over 250 °C.

The compound `Cc1ccc(NC(=O)Nc2ccc(-c3c(Cc4ccccc4)sc4ncnc(N)c34)cc2)cc1` [Example 9, N-[4-(4-amino-6-benzylthieno[2,3-d]pyrimidin-5-yl)phenyl]-N′-(4-methylphenyl)urea] returned a melting point of 169 to 173 °C.

For `Nc1ncnc2sc(Cc3ccccc3)c(-c3ccc(NS(=O)(=O)c4ccccc4)cc3)c12` [Example 13, N-[4-(4-amino-6-benzylthieno[2,3-d]pyrimidin-5-yl)phenyl]benzenesulfonamide], the melting point was 100 to 105 °C.

With `Cc1ccccc1NC(=O)Nc1ccc(-c2c(CCO)sc3ncnc(N)c23)cc1` [Example 107, N-{4-[4-amino-6-(2-hydroxyethyl)thieno[2,3-d]pyrimidin-5-yl]phenyl}-N′-(2-methylphenyl)urea], the melting point lay within 159 to 162 °C.

On to `COCCc1sc2ncnc(N)c2c1-c1ccc(NC(=O)Nc2ccc(C)cc2)cc1` [Example 110, N-{4-[4-amino-6-(2-methoxyethyl)thieno[2,3-d]pyrimidin-5-yl]phenyl}-N′-(4-methylphenyl)urea], for which the melting point was 128 to 132 °C.

`COCCc1sc2ncnc(N)c2c1-c1ccc(NS(=O)(=O)c2ccccc2)cc1` [Example 111, N-{4-[4-amino-6-(2-methoxyethyl)thieno[2,3-d]pyrimidin-5-yl]phenyl}benzenesulfonamide] yielded a melting point of 206 to 208 °C.

Compound `COCCc1sc2ncnc(N)c2c1-c1ccc(NC(=O)Cc2cccc(C)c2)cc1` [Example 112, N-{4-[4-amino-6-(2-methoxyethyl)thieno[2,3-d]pyrimidin-5-yl]phenyl}-2-(3-methylphenyl)acetamide] had a melting point of 200 to 202 °C.

Take `COCCc1sc2ncnc(N)c2c1-c1ccc(NC(=O)c2ccccc2)cc1` [Example 113, N-{4-[4-amino-6-(2-methoxyethyl)thieno[2,3-d]pyrimidin-5-yl]phenyl}benzamide]: the melting point was 200 to 202 °C.

Turning to `Nc1ncnc2sc(Cc3cccnc3)c(-c3ccc(NC(=O)Nc4cccc(Cl)c4)cc3)c12` [Example 117, N-{4-[4-amino-6-(pyridin-3-ylmethyl)thieno[2,3-d]pyrimidin-5-yl]phenyl}-N′-(3-chlorophenyl)urea], the melting point was in the range of 169 to 172 °C.

Consider `COCCc1sc2ncnc(N)c2c1-c1ccc(N(C(N)=O)c2ccccc2C)cc1` [Example 137, N-{4-[4-amino-6-(2-methoxyethyl)thieno[2,3-d]pyrimidin-5-yl]phenyl}-N-(2-methylphenyl)urea], for which the melting point is 217 to 219 °C.

Compound `NC(=O)N(c1ccc(-c2c(CCO)sc3ncnc(N)c23)cc1)c1cccc(C(F)(F)F)c1` [Example 139, N-{4-[4-amino-6-(2-hydroxyethyl)thieno[2,3-d]pyrimidin-5-yl]phenyl}-N-[3-(trifluoromethyl)phenyl]urea] registered a melting point of 155 to 158 °C.

For the compound `COCCc1sc2ncnc(N)c2c1-c1ccc(NC(=O)Nc2cc(C(F)(F)F)ccc2F)cc1` [Example 140, N-{4-[4-amino-6-(2-methoxyethyl)thieno[2,3-d]pyrimidin-5-yl]phenyl}-N′-[2-fluoro-5-(trifluoromethyl)phenyl]urea], the melting point is 209 to 211 °C.

Compound `Nc1ncnc2sc(Cc3ccncc3)c(-c3ccc(NC(=O)Nc4cccc(C(F)(F)F)c4)cc3)c12` [Example 142, N-{4-[4-amino-6-(pyridin-4-ylmethyl)thieno[2,3-d]pyrimidin-5-yl]phenyl}-N′-[3-(trifluoromethyl)phenyl]urea] showed a melting point of 162 to 166 °C.

In turn, `Cc1cccc(CC(=O)Nc2ccc(-c3c(CCO)sc4ncnc(N)c34)cc2)c1` [Example 350, N-{4-[4-amino-6-(2-hydroxyethyl)thieno[2,3-d]pyrimidin-5-yl]phenyl}-2-(3-methylphenyl)acetamide] came in with a melting point of 142 to 144 °C.

The values are drawn from patent publication US20030225273A1, “Thiopyrimidine and isothiazolopyrimidine kinase inhibitors” (priority 2002, published 2003).
